Data taken from PubChem BioAssay AID1159564 (GlaxoSmithKline (GSK), 2015).
Active and inactive are the calls of the source. How the calls were made is not given here.

System: L. donovani-infected THP-1 macrophages, intracellular amastigote imaging
Experiment: antileishmanial activity in infected THP-1 macrophages – imaging, THP-1 host macrophages, host toxicity (AID 1159564)
[1] = measured here: THP-1 host cell toxicity
[2] = measured here: amastigotes per macrophage

SMILES	IC50	IC50 [1] [µM]	IC50 [2] [µM]
O=C(Nc1cccc(Cl)c1)Nc1ccc([N+](=O)[O-])cc1Cl	3.2 µM	25	2
COc1cnc2ccc(=O)n(CCN3CCC(NC/C=C/c4cc(F)ccc4F)CC3)c2c1	5 µM	40	2
C[C@@H](Oc1cc(-n2cnc3cc(N)ccc32)sc1C(N)=O)c1ccccc1Cl	32 µM	25	20
N#Cc1c(Oc2cccc(Cl)c2)cccc1[N+](=O)[O-]	10 µM	> 50	7.9
CC(c1ccc2c(c1)CCCC2)N(C)c1ncc2c(N)nc(N)nc2n1 (stereo not given)	2 µM	25	0.79
COc1cccc(Nc2cc(C)nc(-c3ccccn3)n2)c1	2 µM	> 50	1.3
O=C(CN(Cc1ccccn1)Cc1ccccn1)NC1Cc2ccccc2C1	5 µM	> 79	5
NC(=O)c1cc(F)ccc1Nc1nc(NC2CCC(O)CC2)ncc1Cl (stereo not given)	1.3 µM	0.63	0.79
CCOc1cc(NCCCN2CCN(C)CC2)c2ncccc2c1	1.3 µM	6.3	0.79
Cc1ccc2c(c1)SC(C(=O)Nc1n[nH]c(-c3ccccn3)n1)C2 (stereo not given)	4 µM	25	2.5
CCCN(Cc1ccc(OC)c(OC)c1)Cc1cc(=O)c2c(C)cc(C)cc2[nH]1	25 µM	5	20
COc1cccc(-c2cc(C(F)(F)F)nc(-n3ccc([N+](=O)[O-])n3)n2)c1	> 50 µM (inactive)	> 50	> 50
CC(CCc1ccccc1)NC(=O)CN(Cc1ccccn1)Cc1ccccn1 (stereo not given)	3.2 µM	20	3.2
CN(Cc1nc2ccccc2s1)C(=O)C=Cc1cc2ccccc2o1	> 50 µM (inactive)	> 50	16
CN(Cc1nc2ccc(C(=O)NCC3CCCCC3)cc2[nH]1)C1CCCc2cccnc21 (stereo not given)	0.5 µM	6.3	0.4
Oc1c(-c2n[nH]c(CCc3ccccc3)n2)ncc2cccnc12	4 µM	20	3.2
COc1ccc(NC(=O)c2ccc(NC(=O)CN(c3ccccc3C)S(C)(=O)=O)cc2)cc1	> 50 µM (inactive)	> 50	7.9
Cn1nccc1NC(=O)Cn1ccc(-c2ccncc2)n1	> 50 µM (inactive)	> 50	> 50
CC(CNS(=O)(=O)c1ccc(OC(F)F)cc1)c1ccc(NC(=O)c2ccncc2)cc1 (stereo not given)	> 50 µM (inactive)	16	5
CCCCn1c(=O)c2c(N)onc2n(CCCC)c1=O	> 50 µM (inactive)	> 50	32
COc1ccc(S(=O)(=O)NC(C)C)cc1Nc1ncc(-c2cccc(F)c2)cn1	> 50 µM (inactive)	> 50	> 50
COc1ccccc1C=CCN1C[C@H]2CCC[C@@H](C1)C2(O)c1cccnc1 (stereo not given in full)	> 50 µM (inactive)	40	32
CN(C(=O)Nc1ccc2c(c1)CCN(C1CCC1)CC2)c1ccc(C#N)cc1	> 50 µM (inactive)	> 50	> 50
CC1=NN(C(=O)CCn2cnc([N+](=O)[O-])n2)C(O)(C(F)(F)F)C1 (stereo not given)	> 50 µM (inactive)	> 50	> 50
COc1cccc(C(=O)[C@H]2C[C@@H]2CN(Cc2ccccn2)Cc2ccccn2)c1	2 µM	> 50	1.6

SMILES	IC50	IC50 [1] [µM]	IC50 [2] [µM]
COCCn1c(-c2ccccc2)cnc1NCc1ccccc1OC	6.3 µM	50	6.3
Cc1ccc(CNC2CCN(C[C@@H]3Cn4c(=O)ccc5ccc(=O)n3c54)CC2)cc1F	> 50 µM (inactive)	> 50	> 50
Cc1cc(Br)sc1CNCCCNc1cc(=O)c2ccccc2[nH]1	25 µM	20	20
COc1cccc(NS(=O)(=O)c2ccc3[nH]cc(C(=O)NCCC(C)C)c(=O)c3c2)c1	> 50 µM (inactive)	> 50	> 50
NCc1ccc2c(Cl)cc(Cl)c(O)c2n1	2 µM	20	2
OCCCNc1nc(Nc2ccncc2)nc2ccccc12	> 50 µM (inactive)	> 50	> 50
COc1ccc([N+](=O)[O-])cc1NC(=O)c1cc(Cl)ccc1O	2 µM	10	1.6
CNS(=O)(=O)c1ccccc1Nc1nc(Nc2ccnn2C)ncc1Cl	0.63 µM	0.32	0.4
Cc1ccc2nc(N(Cc3cccnc3)C(=O)CCc3ccccc3)sc2c1	> 50 µM (inactive)	> 50	> 50
O=C(CC1(O)C(=O)N(Cc2ccccc2)c2ccc(Br)cc21)c1cccnc1 (stereo not given)	> 50 µM (inactive)	40	32
COc1ccc(C(C)N(C)c2ncc3c(N)nc(N)nc3n2)cc1F (stereo not given)	16 µM	> 50	13
COc1ccc(S(=O)(=O)Nc2ccc(C(=O)Nc3nc(-c4ccccn4)cs3)cc2)cc1	0.4 µM	10	0.16
CC(C)(C)C(O)(CCc1ccc(Cl)cc1)Cn1cncn1 (stereo not given)	> 50 µM (inactive)	> 50	> 50
COc1cccc(CN(C)Cc2nc(N)c3c(C)c(C)sc3n2)c1	5 µM	32	3.2
COc1ccccc1C1CC(c2ccc(NS(C)(=O)=O)cc2)=NN1C(=O)c1cccs1 (stereo not given)	4 µM	> 50	2.5
c1ccc(CCNCc2cncc3nc(-c4cnccn4)n(C4CCCCC4)c23)cc1	> 50 µM (inactive)	> 50	> 50
CCCn1c(NC(=O)Cc2ccc(Cl)cc2)nc2ccccc21	5 µM	> 50	3.2
O=C(NCCNc1noc(-c2ccc([N+](=O)[O-])cc2)n1)c1ccc(Cl)cc1	> 50 µM (inactive)	16	> 50
O=C(Nc1ccc(C(=O)N2CCCC2c2ccc3c(c2)OCCCO3)cc1)c1ccco1 (stereo not given)	6.3 µM	> 50	3.2
N#Cc1nc(C=Cc2ccccc2)oc1NCc1cccnc1	40 µM	32	32
CCN(CC)c1nc(N(C)C)nc2c1CN(Cc1ccccc1)CC2	6.3 µM	40	4
O=C(Nc1ccccc1C(=O)Nc1ccccn1)c1ccco1	> 50 µM (inactive)	> 50	> 50
CC(C)n1c(-c2nonc2N)nc2cccc(OCCN3CCCC3)c21	32 µM	32	20
C[C@@H](Oc1cc(-n2cnc3ccc(CC(O)CO)cc32)sc1C(N)=O)c1ccccc1Cl (stereo not given in full)	40 µM	40	32
CCOc1ccc(Nc2ccc(S(=O)(=O)N3CCN(C)CC3)cc2[N+](=O)[O-])cc1OCC	7.9 µM	13	5
